According to patent publication US20170038365A1, “SMALL MOLECULE INHIBITORS OF 8-OXOGUANINE DNA GLYCOSYLASE-1 (OGG1)” (OREGON HEALTH & SCIENCE UNIVERSITY, priority 2015, published 2017):

Key:
OGG1 [1] = molecular target: T1, OGG1 (Homo sapiens, UniProt O15527); test: fluorescence-based OGG1 activity assay (TAMRA/BHQ2 8-oxo-Gua substrate); assay type: biochemical; conditions: read-out: IC50 (OGG1 inhibition)
T1 construct: His tag; made in house; host or cells: bacterial culture (LB media, IPTG induction)
Experimental: The OGG1 activity assay utilized a 17-mer oligodeoxynucleotide that contained an 8-oxo-Gua positioned 6 deoxynucleotides downstream of a 5′-TAMRA fluorophore and a complementary DNA strand that contained a 3′-Black Hole Quencher 2 (BHQ2) (FIG. 1). […] Therefore, inhibitors of OGG1 activity would be expected to result in a weaker fluorescence signal over time compared to a no inhibitor control.
The fluorescence-based assay outlined in FIG. 2A was performed in black, low volume 384-well plates with a final volume of 10 μL per well. […] Plates were incubated for 30 min at 37° C. and TAMRA fluorescence in each well was measured using the Biotek Synergy 4 platereader (Filters=Ex 528/20, Em 600/40. Mirror=Top 570 nm with polarizer). Background-subtracted fluorescence values were calculated for each well and any compound that had ≧40% decrease in fluorescence compared to the no inhibitor control was identified as a hit. […]
Assays to calculate IC50 values of OGG1, NEIL1, and NTH1 were fundamentally similar to the high-throughput screen except that the step for the addition of drug differed and a lower enzyme concentration was used. […] Plates were incubated at 37° C. for 40 min (OGG1), 5 min (NEIL1), and 10 min (NTH1), followed by the measurement of TAMRA fluorescence. […]

OGG1 [2] = molecular target: T1, OGG1; test: OGG1 AP lyase activity on AP site-containing substrate (gel); assay type: biochemical; conditions: 10 μM compound, compared to no inhibitor control
Experimental: FIG. 5A is a bar graph of OGG1 lyase activity on a substrate containing an AP site. The substrate was incubated without OGG1 (No Enz), with OGG1 (No Inh), or with OGG1+10 μM compound. The top band in each gel corresponds to uncleaved substrate and the bottom band is cleaved product. Mean percent cleavage compared to the no inhibitor control (% Activity) was plotted for three independent experiments. The uncertainties are standard deviations.
(§1) Hydrazides Inhibit the Glycosylase and Lyase Activities of OGG1. To verify the results of the fluorescence-based assay, gel-based assays were performed to detect OGG1-mediated strand cleavage of an 8-oxo-Gua-containing substrate at eight different inhibitor concentrations (FIG. 4). […] There are at least three possibilities that could account for how these molecules inhibit DNA strand cleavage by OGG1. […] This assay used γ-irradiated calf thymus DNA as a substrate and measured the number of free 8-oxo-Gua and FapyGua in solution released by OGG1. […]
(§2) Gel-based assays were performed by combining 4 μL of 2.5×OGG1 (62.5 nM) with 1 μL 10× inhibitor or buffer. […] Samples were analyzed by electrophoresis on a 15% polyacrylamide gel containing 8 M urea and bands were visualized by a FluorChem M imager (Protein Simple). Band intensities were quantified using the Image Studio Lite Software (LI-COR).

OGG1 [3] = molecular target: T1, OGG1; test: OGG1 glycosylase activity on γ-irradiated calf thymus DNA by GC-MS/MS; assay type: biochemical; conditions: 0.1 μmol inhibitor
Experimental: FIG. 5B is a bar graph of OGG1 glycosylase activity measured on irradiated calf thymus DNA. The number of excised 8-oxo-Gua per 10^6 DNA bases was measured by GC-MS/MS. Graph plots equal the mean of three independent experiments. The uncertainties are standard deviations.
FIG. 5C is a bar graph of OGG1 glycosylase activity measured on irradiated calf thymus DNA. The number of excised FapyGua per 10^6 DNA bases was measured by GC-MS/MS. Graph plots equal the mean of three independent experiments. The uncertainties are standard deviations.
as §1
The enzymatic activities of OGG1, NEIL1 and NTH1 were measured using gas chromatography/isotope-dilution tandem mass spectrometry (GC-MS/MS) and calf thymus DNA samples γ-irradiated at 20 Gy as described in Jaruga et al 2008 infra and Reddy et al, 2013 infra. […]

OGG1 [4] = molecular target: T1, OGG1; test: gel-based OGG1 cleavage assay on 8-oxo-Gua-containing substrate; assay type: biochemical; conditions: eight inhibitor concentrations 0.008-25 μM
Experimental: FIG. 4A is an image and plot showing a gel-based OGG1 activity assay of compound O8. 8-oxo-Gua-containing substrate was incubated without OGG1 (No Enz), with OGG1 (No Inh), or with OGG1+8 different concentrations (25, 8, 2.5, 0.8, 0.25, 0.08, 0.025, 0.008 μM) of inhibitors. The top band in the gel corresponds to uncleaved substrate and the bottom band is cleaved product. The Y-axis on each graph equals the percent substrate cleavage compared to the no inhibitor control (% Activity). Data points equal the mean of three independent experiments. The uncertainties are standard deviations.
Hydrazides Inhibit the Glycosylase and Lyase Activities of OGG1. To verify the results of the fluorescence-based assay, gel-based assays were performed to detect OGG1-mediated strand cleavage of an 8-oxo-Gua-containing substrate at eight different inhibitor concentrations (FIG. 4). […] This assay used γ-irradiated calf thymus DNA as a substrate and measured the number of free 8-oxo-Gua and FapyGua in solution released by OGG1. […]
as §2

OGG1 [5] = molecular target: T1, OGG1; test: sodium cyanoborohydride trapping assay of OGG1 and substrate; assay type: biochemical; conditions: 10 μM inhibitor, 1 mM NaBH3CN
Experimental: FIG. 6B is an image and bar graph of Sodium cyanoborohydride trapping of OGG1 and substrate. OGG1 was incubated with 8-oxo-Gua- (top gel), AP site- (bottom gel) or U-containing (last lane in each gel) substrates with or without 10 μM inhibitor or INH. Reactions were performed in the presence of 1 mM NaBH3CN. Top band in each gel corresponds to OGG1 trapped to substrate and the bottom band is untrapped substrate. Bands were quantified in each gel and the percent trapped compared to the no inhibitor control was plotted for each compound. Graph plots equal the mean of three independent experiments. The uncertainties are standard deviations.
FIG. 11 is an image and plot of a dose response for O8 trapping. […] Bands were quantified in each gel and the percent trapped compared to the no inhibitor control (% Trapped) was plotted for each compound. […] Mean T50 values in μM±std. dev. were calculated as described above.
To test whether these inhibitors interfere with catalysis, trapping experiments were conducted by carrying out the OGG1 activity assay in the presence of sodium cyanoborohydride. […] These values are slightly higher, but still very close to the calculated IC50 value for this inhibitor (Table 1).
A total of 4 μL of 2.5×OGG1 (125 nM) was mixed with 1 μL of 10× inhibitor. […] Band intensities were quantified using the Image Studio Lite Software. […]

[6] = molecular target: OGG1 (8-oxoguanine DNA glycosylase-1) (Homo sapiens, UniProt O15527 O15527:1-345); test: EMSA; 50 nM OGG1, 25 nM DNA, on ice 5 min; also trapped by NaBH3CN (FIG. 6B); binding abrogated by ATA, unaffected by the five inhibitors; conditions: tags: His-tag; expressed in bacteria, Ni-NTA purified; label: 5'-TAMRA; 3'-BHQ2 on complement in fluorescence assay
Chain of OGG1 (8-oxoguanine DNA glycosylase-1) (O15527 whole entry, one chain of several): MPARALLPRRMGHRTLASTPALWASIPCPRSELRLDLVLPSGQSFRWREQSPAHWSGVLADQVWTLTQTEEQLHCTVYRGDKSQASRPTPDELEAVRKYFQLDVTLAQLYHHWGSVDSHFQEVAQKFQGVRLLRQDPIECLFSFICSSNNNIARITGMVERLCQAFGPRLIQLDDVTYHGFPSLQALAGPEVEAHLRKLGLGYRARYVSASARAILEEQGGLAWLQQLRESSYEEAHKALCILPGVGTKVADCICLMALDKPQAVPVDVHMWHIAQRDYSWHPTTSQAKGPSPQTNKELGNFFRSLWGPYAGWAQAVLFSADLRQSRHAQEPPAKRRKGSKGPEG
Experimental: To test whether these inhibitors affected OGG1 binding to an 8-oxo-Gua or AP site, gel shift assays were performed.
All experiments were performed on ice with pre-cooled reagents. […] 5 μL 2× substrate (50 nM) was added, mixed and kept on ice for 5 min. The reaction was quenched with 10 μL ice-cold 30% glycerol and loaded onto a pre-cooled 8% native gel containing 30% glycerol. The gel was run at 4° C. for 1 h (75 V) and bands were visualized by a FluorChem M imager. Band intensities were quantified using the Image Studio Lite Software.

T1 sequence (O15527 whole entry): as the sequence (O15527 whole entry, one chain of several) above

Molecule: NC(=O)c1cc2ccccc2cc1O [3-hydroxy-2-naphthamide]
- IC50 (OGG1 [1]): > 50000 nM

Molecule: NNC(=O)c1cc2ccccc2cc1O [3-hydroxy-2-naphthohudrazide]
- IC50 (OGG1 [1]): 75 nM

Molecule: Cc1cc(C(=O)NNCc2ccccc2)no1 [ICD, isocarboxazid]
- effect on OGG1-induced cleavage of an AP site (AP lyase activity) (OGG1 [2]): no effect
- OGG1-mediated excision of 8-oxo-Gua and FapyGua (OGG1 [3]): little to no decrease

Molecule: NNC(=O)c1ccncc1 [INH, isoniazid]
- inhibition of OGG1-mediated strand cleavage of 8-oxo-Gua-containing substrate (OGG1 [4]): no inhibition
- effect on OGG1-induced cleavage of an AP site (AP lyase activity) (OGG1 [2]): no effect
- effect on trapping of OGG1 (Schiff base formation) on 8-oxo-Gua- and AP site-containing substrates (OGG1 [5]): no effect
- OGG1-mediated excision of 8-oxo-Gua and FapyGua (OGG1 [3]): little to no decrease

B1: 8-oxo-Gua 17-mer duplex (dsDNA)
DNA 1: TCACCGTCGTACGACTC
DNA 2: GAGTCGTACGACGGTGA
modifications: n is 8-oxo-guanine; complement SEQ:2 appears printed 3'-5' [6 (8-oxo-guanine)]
- binding result [6]: binds
